Data from PubChem BioAssay (NCI).
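Results reflect a 48-hour exposure of cells in 96-well plates to compound at five concentrations. TGI denotes the concentration required for complete inhibition of growth.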

Experiments:
Experiment in all cases: NCI-60 cell line screen, 48 h
UACC-257 melanoma = test system: UACC-257 melanoma
TK-10 renal = test system: TK-10 renal
OVCAR-3 ovarian = test system: OVCAR-3 ovarian
HS 578T breast = test system: HS 578T breast
HCT-116 colon = test system: HCT-116 colon
PC-3 prostate = test system: PC-3 prostate
SK-MEL-28 melanoma = test system: SK-MEL-28 melanoma
HCC-2998 colon = test system: HCC-2998 colon
K-562 leukemia = test system: K-562 leukemia
UO-31 renal = test system: UO-31 renal
NCI-H460 lung = test system: NCI-H460 lung
MDA-N = test system: MDA-N
IGROV1 ovarian = test system: IGROV1 ovarian
NCI/ADR-RES ovarian = test system: NCI/ADR-RES ovarian
UACC-62 melanoma = test system: UACC-62 melanoma
ACHN renal = test system: ACHN renal
NCI-H522 lung = test system: NCI-H522 lung
LOX IMVI melanoma = test system: LOX IMVI melanoma
HOP-92 NSCLC = test system: HOP-92 NSCLC
OVCAR-5 ovarian = test system: OVCAR-5 ovarian
BT-549 breast = test system: BT-549 breast
MDA-MB-231 breast = test system: MDA-MB-231 breast
OVCAR-8 ovarian = test system: OVCAR-8 ovarian
MOLT-4 leukemia = test system: MOLT-4 leukemia
HL-60(TB) leukemia = test system: HL-60(TB) leukemia
EKVX NSCLC = test system: EKVX NSCLC
CAKI-1 renal = test system: CAKI-1 renal
MDA-MB-435 = test system: MDA-MB-435
SW-620 colon = test system: SW-620 colon
NCI-H23 lung = test system: NCI-H23 lung
SK-MEL-5 melanoma = test system: SK-MEL-5 melanoma
MCF7 breast = test system: MCF7 breast
OVCAR-4 ovarian = test system: OVCAR-4 ovarian
786-0 renal = test system: 786-0 renal
A549 NSCLC = test system: A549 NSCLC
SK-MEL-2 melanoma = test system: SK-MEL-2 melanoma
CCRF-CEM leukemia = test system: CCRF-CEM leukemia
SF-539 CNS = test system: SF-539 CNS
SF-268 CNS = test system: SF-268 CNS
HCT-15 colon = test system: HCT-15 colon
SF-295 CNS = test system: SF-295 CNS
HT29 colon = test system: HT29 colon
RXF 393 renal = test system: RXF 393 renal
A498 renal = test system: A498 renal
SR leukemia = test system: SR leukemia
U251 CNS = test system: U251 CNS
KM12 colon = test system: KM12 colon
COLO 205 colon = test system: COLO 205 colon
M14 melanoma = test system: M14 melanoma
SNB-19 CNS = test system: SNB-19 CNS
HOP-62 NSCLC = test system: HOP-62 NSCLC
T-47D breast = test system: T-47D breast
DU-145 prostate = test system: DU-145 prostate
SN12C renal = test system: SN12C renal
SK-OV-3 ovarian = test system: SK-OV-3 ovarian
SNB-75 CNS = test system: SNB-75 CNS
RPMI-8226 leukemia = test system: RPMI-8226 leukemia
NCI-H226 lung = test system: NCI-H226 lung
MALME-3M melanoma = test system: MALME-3M melanoma

C[C@@]1(O)C2C3CC4C5C3C1[C@](O)(C42)[C@H]5Br (stereo partly drawn)
TGI (UACC-257 melanoma): > 100 µM | TGI (TK-10 renal): > 100 µM | TGI (OVCAR-3 ovarian): > 100 µM | TGI (HS 578T breast): > 100 µM | TGI (HCT-116 colon): > 100 µM | TGI (PC-3 prostate): > 100 µM | TGI (SK-MEL-28 melanoma): > 100 µM | TGI (HCC-2998 colon): > 100 µM | TGI (K-562 leukemia): > 100 µM | TGI (UO-31 renal): > 100 µM | TGI (NCI-H460 lung): > 100 µM | TGI (MDA-N): > 100 µM | TGI (IGROV1 ovarian): > 100 µM | TGI (NCI/ADR-RES ovarian): > 100 µM | TGI (UACC-62 melanoma): > 100 µM | TGI (ACHN renal): > 100 µM | TGI (NCI-H522 lung): > 100 µM | TGI (LOX IMVI melanoma): > 100 µM | TGI (HOP-92 NSCLC): > 100 µM | TGI (OVCAR-5 ovarian): > 100 µM | TGI (BT-549 breast): > 100 µM | TGI (MDA-MB-231 breast): > 100 µM | TGI (OVCAR-8 ovarian): > 100 µM | TGI (MOLT-4 leukemia): > 100 µM | TGI (HL-60(TB) leukemia): > 100 µM | TGI (EKVX NSCLC): > 100 µM | TGI (CAKI-1 renal): > 100 µM | TGI (MDA-MB-435): > 100 µM | TGI (SW-620 colon): > 100 µM | TGI (NCI-H23 lung): > 100 µM | TGI (SK-MEL-5 melanoma): > 100 µM | TGI (MCF7 breast): > 100 µM | TGI (OVCAR-4 ovarian): > 100 µM | TGI (786-0 renal): > 100 µM | TGI (A549 NSCLC): > 100 µM | TGI (SK-MEL-2 melanoma): > 100 µM | TGI (CCRF-CEM leukemia): > 100 µM | TGI (SF-539 CNS): > 100 µM | TGI (SF-268 CNS): > 100 µM | TGI (HCT-15 colon): > 100 µM | TGI (SF-295 CNS): > 100 µM | TGI (HT29 colon): > 100 µM | TGI (RXF 393 renal): > 100 µM | TGI (A498 renal): > 100 µM | TGI (SR leukemia): > 100 µM | TGI (U251 CNS): > 100 µM | TGI (KM12 colon): > 100 µM | TGI (COLO 205 colon): > 100 µM | TGI (M14 melanoma): > 100 µM | TGI (SNB-19 CNS): > 100 µM | TGI (HOP-62 NSCLC): > 100 µM | TGI (T-47D breast): > 100 µM | TGI (DU-145 prostate): > 100 µM | TGI (SN12C renal): > 100 µM

COc1ccc(NC=O)c(C(=O)CCNC(C)=O)c1
TGI (UACC-257 melanoma): > 100 µM | TGI (TK-10 renal): > 100 µM | TGI (OVCAR-3 ovarian): > 100 µM | TGI (HS 578T breast): > 100 µM | TGI (HCT-116 colon): > 100 µM | TGI (PC-3 prostate): > 100 µM | TGI (K-562 leukemia): > 100 µM | TGI (UO-31 renal): > 100 µM | TGI (NCI-H460 lung): > 100 µM | TGI (MDA-N): > 100 µM | TGI (IGROV1 ovarian): > 100 µM | TGI (NCI/ADR-RES ovarian): > 100 µM | TGI (UACC-62 melanoma): > 100 µM | TGI (ACHN renal): > 100 µM | TGI (NCI-H522 lung): > 100 µM | TGI (LOX IMVI melanoma): > 100 µM | TGI (HOP-92 NSCLC): > 100 µM | TGI (OVCAR-5 ovarian): > 100 µM | TGI (BT-549 breast): > 100 µM | TGI (MDA-MB-231 breast): > 100 µM | TGI (OVCAR-8 ovarian): > 100 µM | TGI (MOLT-4 leukemia): > 100 µM | TGI (HL-60(TB) leukemia): > 100 µM | TGI (EKVX NSCLC): > 100 µM | TGI (CAKI-1 renal): > 100 µM | TGI (MDA-MB-435): > 100 µM | TGI (SW-620 colon): > 100 µM | TGI (SK-OV-3 ovarian): > 100 µM | TGI (NCI-H23 lung): > 100 µM | TGI (SK-MEL-5 melanoma): > 100 µM | TGI (MCF7 breast): > 100 µM | TGI (OVCAR-4 ovarian): > 100 µM | TGI (786-0 renal): > 100 µM | TGI (A549 NSCLC): > 100 µM | TGI (SK-MEL-2 melanoma): > 100 µM | TGI (CCRF-CEM leukemia): > 100 µM | TGI (SF-539 CNS): > 100 µM | TGI (SNB-75 CNS): > 100 µM | TGI (SF-268 CNS): > 100 µM | TGI (HCT-15 colon): > 100 µM | TGI (RPMI-8226 leukemia): > 100 µM | TGI (SF-295 CNS): > 100 µM | TGI (NCI-H226 lung): > 100 µM | TGI (HT29 colon): > 100 µM | TGI (RXF 393 renal): > 100 µM | TGI (A498 renal): > 100 µM | TGI (SR leukemia): > 100 µM | TGI (U251 CNS): > 100 µM | TGI (KM12 colon): > 100 µM | TGI (COLO 205 colon): > 100 µM | TGI (M14 melanoma): > 100 µM | TGI (SNB-19 CNS): > 100 µM | TGI (T-47D breast): > 100 µM | TGI (DU-145 prostate): > 100 µM | TGI (SN12C renal): > 100 µM

CC(=O)OCC1OC(n2c(-c3ccc(Cl)cc3)cc(-c3ccccc3)c(C#N)c2=S)C(OC(C)=O)C(OC(C)=O)C1OC(C)=O (stereo not drawn)
TGI (MALME-3M melanoma): 7.71 µM | TGI (TK-10 renal): 42.2 µM | TGI (OVCAR-3 ovarian): 22.4 µM | TGI (HS 578T breast): 10.5 µM | TGI (HCT-116 colon): 18.8 µM | TGI (PC-3 prostate): 23.3 µM | TGI (SK-MEL-28 melanoma): 23.4 µM | TGI (HCC-2998 colon): 34.7 µM | TGI (K-562 leukemia): > 100 µM | TGI (UO-31 renal): 40.1 µM | TGI (NCI-H460 lung): 17.9 µM | TGI (MDA-N): 24.3 µM | TGI (IGROV1 ovarian): 25.8 µM | TGI (NCI/ADR-RES ovarian): 21 µM | TGI (ACHN renal): 26.2 µM | TGI (NCI-H522 lung): 60.1 µM | TGI (LOX IMVI melanoma): 17.8 µM | TGI (HOP-92 NSCLC): 40.8 µM | TGI (OVCAR-5 ovarian): 35 µM | TGI (BT-549 breast): 17.8 µM | TGI (MDA-MB-231 breast): 15.7 µM | TGI (OVCAR-8 ovarian): 23 µM | TGI (MOLT-4 leukemia): 85.9 µM | TGI (HL-60(TB) leukemia): 17.4 µM | TGI (EKVX NSCLC): 31.9 µM | TGI (CAKI-1 renal): 26.9 µM | TGI (MDA-MB-435): 25.2 µM | TGI (SW-620 colon): 14.7 µM | TGI (SK-OV-3 ovarian): 25.2 µM | TGI (NCI-H23 lung): 27.2 µM | TGI (SK-MEL-5 melanoma): 23.5 µM | TGI (MCF7 breast): 67.8 µM | TGI (OVCAR-4 ovarian): 3.3 µM | TGI (786-0 renal): 24.6 µM | TGI (A549 NSCLC): 27.9 µM | TGI (SF-539 CNS): 14.6 µM | TGI (SNB-75 CNS): 20.8 µM | TGI (SF-268 CNS): 25.6 µM | TGI (HCT-15 colon): > 100 µM | TGI (RPMI-8226 leukemia): 43.3 µM | TGI (SF-295 CNS): 23.6 µM | TGI (NCI-H226 lung): 12 µM | TGI (HT29 colon): 21.1 µM | TGI (RXF 393 renal): 26 µM | TGI (SR leukemia): 53 µM | TGI (U251 CNS): 20.6 µM | TGI (KM12 colon): 48.7 µM | TGI (COLO 205 colon): 33 µM | TGI (M14 melanoma): 16.4 µM | TGI (SNB-19 CNS): 20.9 µM | TGI (HOP-62 NSCLC): 20.5 µM | TGI (T-47D breast): 39.5 µM | TGI (DU-145 prostate): 35.6 µM | TGI (SN12C renal): 26.3 µM
